Test results published in ChEMBL document CHEMBL3046208, “Natural and synthetic podolactones with potential use as natural herbicide models” (2000).
Calls of active or inactive are those of the source. No cut-off for these calls is given here.

Key:
Type in all cases: functional
[1] = test system: Allium cepa; experiment: Stimulation of germination of Allium cepa (onion) at 0.1 mM after 5 days relative to untreated control
[2] = test system: Triticum aestivum; experiment: Inhibition of root length of Triticum aestivum (wheat) at 0.1 mM after 5 days relative to untreated control
[3] = test system: Hordeum vulgare; experiment: Inhibition of shoot length of Hordeum vulgare (barley) at 0.1 mM after 5 days relative to untreated control; settings: 120 h
[4] = test system: Lepidium sativum; experiment: Inhibition of shoot length of Lepidium sativum at 0.1 mM after 5 days relative to untreated control; settings: 120 h
[5] = test system: Lepidium sativum; experiment: Inhibition of root length of Lepidium sativum at 0.1 mM after 5 days relative to untreated control; settings: 120 h
[6] = test system: Lactuca sativa; experiment: Inhibition of shoot length of Lactuca sativa cv. Roman (lettuce) at 0.1 mM after 5 days relative to untreated control; settings: 120 h
[7] = test system: Lactuca sativa; experiment: Stimulation of germination of Lactuca sativa cv. Roman (lettuce) at 0.1 mM after 5 days relative to untreated control
[8] = test system: Triticum aestivum; experiment: Stimulation of shoot length of Triticum aestivum (wheat) at 0.1 mM after 5 days relative to untreated control
[9] = test system: Hordeum vulgare; experiment: Inhibition of root length of Hordeum vulgare (barley) at 0.1 mM after 5 days relative to untreated control; settings: 120 h
[10] = test system: Lactuca sativa; experiment: Inhibition of shoot length of Lactuca sativa cv. Nigra (lettuce) at 0.1 mM after 5 days relative to untreated control; settings: 120 h
[11] = test system: Lactuca sativa; experiment: Inhibition of root length of Lactuca sativa cv. Roman (lettuce) at 0.1 mM after 5 days relative to untreated control
[12] = test system: Triticum aestivum; experiment: Stimulation of germination of Triticum aestivum (wheat) at 0.1 mM after 5 days relative to untreated control
[13] = test system: Solanum lycopersicum; experiment: Stimulation of root length of Solanum lycopersicum (tomato) at 0.1 mM after 5 days relative to untreated control
[14] = test system: Lactuca sativa; experiment: Stimulation of root length of Lactuca sativa cv. Nigra (lettuce) at 0.1 mM after 5 days relative to untreated control
[15] = test system: Lepidium sativum; experiment: Stimulation of shoot length of Lepidium sativum at 0.1 mM after 5 days relative to untreated control
[16] = test system: Hordeum vulgare; experiment: Stimulation of germination of Hordeum vulgare (barley) at 0.1 mM after 5 days relative to untreated control
[17] = test system: Lactuca sativa; experiment: Stimulation of shoot length of Lactuca sativa cv. Roman (lettuce) at 0.1 mM after 5 days relative to untreated control
[18] = test system: Solanum lycopersicum; experiment: Inhibition of root length of Solanum lycopersicum (tomato) at 0.1 mM after 5 days relative to untreated control; settings: 120 h
[19] = test system: Solanum lycopersicum; experiment: Stimulation of shoot length of Solanum lycopersicum (tomato) at 0.1 mM after 5 days relative to untreated control
[20] = test system: Lactuca sativa; experiment: Stimulation of root length of Lactuca sativa cv. Roman (lettuce) at 0.1 mM after 5 days relative to untreated control
[21] = test system: Lepidium sativum; experiment: Stimulation of root length of Lepidium sativum at 0.1 mM after 5 days relative to untreated control
[22] = test system: Lactuca sativa; experiment: Stimulation of shoot length of Lactuca sativa cv. Nigra (lettuce) at 0.1 mM after 5 days relative to untreated control
[23] = test system: Hordeum vulgare; experiment: Stimulation of root length of Hordeum vulgare (barley) at 0.1 mM after 5 days relative to untreated control
[24] = test system: Allium cepa; experiment: Inhibition of germination of Allium cepa (onion) at 10 nM after 5 days relative to untreated control; settings: 120 h
[25] = test system: Solanum lycopersicum; experiment: Inhibition of shoot length of Solanum lycopersicum (tomato) at 0.1 mM after 5 days relative to untreated control; settings: 120 h
[26] = test system: Allium cepa; experiment: Inhibition of root length of Allium cepa (onion) at 0.1 mM after 5 days relative to untreated control
[27] = test system: Triticum aestivum; experiment: Stimulation of root length of Triticum aestivum (wheat) at 0.1 mM after 5 days relative to untreated control
[28] = test system: Lactuca sativa; experiment: Stimulation of germination of Lactuca sativa cv. Nigra (lettuce) at 0.1 mM after 5 days relative to untreated control
[29] = test system: Lepidium sativum; experiment: Inhibition of germination of Lepidium sativum at 0.1 mM after 5 days relative to untreated control
[30] = test system: Lactuca sativa; experiment: Inhibition of germination of Lactuca sativa cv. Roman (lettuce) at 0.1 mM after 5 days relative to untreated control; settings: 120 h
[31] = test system: Allium cepa; experiment: Stimulation of root length of Allium cepa (onion) at 0.1 mM after 5 days relative to untreated control
[32] = test system: Hordeum vulgare; experiment: Inhibition of germination of Hordeum vulgare (barley) at 0.1 mM after 5 days relative to untreated control; settings: 120 h
[33] = test system: Hordeum vulgare; experiment: Stimulation of shoot length of Hordeum vulgare (barley) at 0.1 mM after 5 days relative to untreated control
[34] = test system: Allium cepa; experiment: Inhibition of germination of Allium cepa (onion) at 0.1 mM after 5 days relative to untreated control; settings: 120 h
[35] = test system: Hordeum vulgare; experiment: Inhibition of germination of Hordeum vulgare (barley) at 1 uM after 5 days relative to untreated control; settings: 120 h
[36] = test system: Allium cepa; experiment: Stimulation of shoot length of Allium cepa (onion) at 0.1 mM after 5 days relative to untreated control
[37] = test system: Allium cepa; experiment: Inhibition of shoot length of Allium cepa (onion) at 0.1 mM after 5 days relative to untreated control; settings: 120 h
[38] = test system: Lepidium sativum; experiment: Stimulation of germination of Lepidium sativum at 0.1 mM after 5 days relative to untreated control
[39] = test system: Triticum aestivum; experiment: Inhibition of germination of Triticum aestivum (wheat) at 0.1 mM after 5 days relative to untreated control
[40] = test system: Lactuca sativa; experiment: Inhibition of germination of Lactuca sativa cv. Nigra (lettuce) at 0.1 mM after 5 days relative to untreated control
[41] = test system: Solanum lycopersicum; experiment: Stimulation of root length of Solanum lycopersicum (tomato) at 1 nM after 5 days relative to untreated control
[42] = test system: Solanum lycopersicum; experiment: Inhibition of germination of Solanum lycopersicum (tomato) at 0.1 mM after 5 days relative to untreated control; settings: 120 h
[43] = test system: Solanum lycopersicum; experiment: Stimulation of germination of Solanum lycopersicum (tomato) at 0.1 mM after 5 days relative to untreated control
[44] = test system: Triticum aestivum; experiment: Inhibition of shoot length of Triticum aestivum (wheat) at 0.1 mM after 5 days relative to untreated control
[45] = test system: Lactuca sativa; experiment: Inhibition of root length of Lactuca sativa cv. Nigra (lettuce) at 0.1 mM after 5 days relative to untreated control

COC(=O)[C@@]1(C)CCC[C@]2(C)C3=C(CC[C@@H]12)COC(=O)C3
Activity [1]: 20% | inhibition [2]: inactive | inhibition at 100 µM [3]: > 40% | inhibition at 100 µM [4]: < 20% | inhibition at 100 µM [5]: < 20% | inhibition at 100 µM [6]: < 20% | Activity [7]: <20% | Activity [8]: inactive | inhibition at 100 µM [9]: > 40% | inhibition at 100 µM [10]: < 20% | inhibition [11]: inactive | Activity [12]: inactive | Activity [13]: >40% | Activity [14]: inactive | Activity [15]: <20% | Activity [16]: >40% | Activity [17]: <20% | inhibition at 100 µM [18]: > 40% | Activity [19]: <20% | Activity [20]: inactive | Activity [21]: <20% | Activity [22]: <20% | Activity [23]: >40% | inhibition at 0.01 µM [24]: -45% | inhibition at 100 µM [25]: < 20% | inhibition [26]: inactive | Activity [27]: inactive | Activity [28]: inactive | inhibition [29]: inactive | inhibition at 100 µM [30]: < 20% | Activity [31]: inactive | inhibition at 100 µM [32]: > 40% | Activity [33]: >40% | inhibition at 100 µM [34]: 20% | inhibition at 1 µM [35]: -71% | Activity [36]: <20% | inhibition at 100 µM [37]: < 20% | Activity [38]: inactive | inhibition [39]: inactive | inhibition [40]: inactive | Activity [41]: 56% | inhibition at 100 µM [42]: < 20% | Activity [43]: <20% | inhibition [44]: inactive | inhibition [45]: inactive
